The assay has as its target T1, purified human SIRT1 (Homo sapiens, UniProt Q96EB6).
T1 sequence (Q96EB6 1-747): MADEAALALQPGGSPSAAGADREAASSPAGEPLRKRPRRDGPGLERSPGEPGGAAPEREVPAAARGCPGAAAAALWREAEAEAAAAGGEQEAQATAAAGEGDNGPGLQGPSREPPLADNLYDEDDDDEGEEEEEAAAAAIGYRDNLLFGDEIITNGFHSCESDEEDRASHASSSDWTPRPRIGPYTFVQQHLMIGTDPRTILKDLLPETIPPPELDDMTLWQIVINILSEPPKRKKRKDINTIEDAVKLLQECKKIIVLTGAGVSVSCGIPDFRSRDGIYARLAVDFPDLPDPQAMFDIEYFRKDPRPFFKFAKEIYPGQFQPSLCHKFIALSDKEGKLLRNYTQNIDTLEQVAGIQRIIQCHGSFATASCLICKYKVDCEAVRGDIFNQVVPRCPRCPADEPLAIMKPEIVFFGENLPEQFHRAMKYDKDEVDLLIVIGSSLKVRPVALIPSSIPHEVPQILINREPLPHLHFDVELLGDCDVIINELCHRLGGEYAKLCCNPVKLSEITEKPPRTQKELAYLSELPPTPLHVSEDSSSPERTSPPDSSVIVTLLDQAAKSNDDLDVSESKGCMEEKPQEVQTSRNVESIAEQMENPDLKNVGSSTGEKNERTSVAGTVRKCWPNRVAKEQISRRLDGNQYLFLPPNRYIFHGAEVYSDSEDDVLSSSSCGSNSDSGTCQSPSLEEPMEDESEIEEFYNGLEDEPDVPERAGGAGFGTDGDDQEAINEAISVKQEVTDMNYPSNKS
The assay is described as follows: SIRT1 inhibitor screen (mobility shift assay, p53 substrate). The assay is classed as biochemical. The following applies: 2 ng/μl SIRT1, 3 μM p53 substrate; for inhibition at 5 µM / percent inhibition of SIRT1 at 5 μM: 5 μM compound; for inhibition at 5 µM: read-out: percent inhibition of SIRT1 at 5 μM; for inhibition at 50 µM / percent inhibition of SIRT1 at 50 μM: 50 μM compound; for inhibition at 50 µM: read-out: percent inhibition of SIRT1 at 50 μM. As for the experimental part: The NatProd Collection library (MicroSource Discovery Systems, Inc. Gaylordsville, Conn.) in ten source plates was screened at two doses (50 μM and 5 μM final in the reaction mixture, duplicate for each dose). The inhibitory activity of the compounds was assessed against 2 ng/μ1 purified human SIRT1 using 3 μM p53 as a substrate. The assay was a mobility shift assay based on charge differences before and after electrophoretic separation of product from fluorescently labeled substrate read using a Caliper EZ Reader (Perkin Elmer, Boston, Mass.). All reactions took place in the presence of excess nicotinamide adenine dinucleotide and the known SIRT1 inhibitor suramin was used as a control.

The structures appear in SMILES notation.

As usually defined, the inhibition is the change of the read-out against control, counted positive when it falls.

For `CC1=C(O)C(=O)C=C2C1=CC=C1[C@@]2(C)CC[C@@]2(C)[C@@H]3C[C@](C)(C(=O)O)CC[C@]3(C)CC[C@]12C` [Celastrol], the inhibition at 5 µM stood at 101% and the inhibition at 50 µM is 100%.
The corresponding values for `Cc1c(O)c(O)cc2c1CC=C1[C@@]2(C)CC[C@@]2(C)[C@@H]3C[C@](C)(C(=O)O)CC[C@]3(C)CC[C@]12C` [Dihydrocelastrol] are 84% and 99%.
As for `O=C(O[C@@H]1Cc2c(O)cc(O)cc2O[C@@H]1c1ccc(O)c(O)c1)c1cc(O)c(O)c(O)c1` [Epicatechin monogallate], the “percent inhibition of SIRT1 at 5 μM” value amounted to 66 and the “percent inhibition of SIRT1 at 50 μM” value was 99.
The corresponding values for `O=C(O[C@@H]1Cc2c(O)cc(O)cc2O[C@@H]1c1cc(O)c(O)c(O)c1)c1cc(O)c(O)c(O)c1` [Epigallocatechin-3-monogallate] are 72 and 99.

The values above are taken from US11312695B2, “Nutrients to enhance load-induced muscle hypertrophy” (The Regents of the University of California, priority 2020, dated 2022).
